These results are taken from paper PMC12758957 (Thrombosis and Haemostasis, 2025).

For assay [1], the target named is T1, prothrombinase-activated wild-type prothrombin (Homo sapiens, UniProt P00734). Description: Inhibition of pNAPEP-0238 peptidyl substrate conversion in a purified system. The conditions noted are these: wild-type thrombin, observed vs reported (ref 41). Format: biochemical. As for the experimental part:
(§1) Prothrombin variants were activated to thrombin by prothrombinase immediately prior to analyses. Reaction mixtures of prothrombin variant (1 μM) and preassembled prothrombinase (2 nM FXa, 2 nM FV-810, and 50 μM phospholipid TGT, final concentrations) were incubated for 30 minutes at 25°C in assay buffer, upon which the reaction was quenched in dilution buffer supplemented with 50 mM EDTA.

Assay [2] has as its target T1, prothrombinase-activated wild-type prothrombin. The settings on record: 1 μM dabigatran. As for the experimental part: Fibrinogen conversion was determined employing a turbidity assay. […] Turbidity was measured for 1 hour at 25°C and 350 nm.
For the next assay, the system named is thrombin. The settings on record: read-out: reported IC50, peak thrombin formation; cited from earlier work.
The target in the next assay is wild-type thrombin. The conditions noted are these: read-out: reported K i, substrate conversion; cited from earlier work.
Assay [3] addresses prothrombinase-activated prothrombin-KL3. In kind it is biochemical, human. As for the experimental part: as §1
In another assay the test system is FXa. On the set-up: method as in PMID 28904343, PMID 38729577. The conditions noted are these: S4 subsite modified FXa variants; cited from earlier work.

Take `CC1CNc2c(cccc2S(=O)(=O)N[C@@H](CCCNC(=N)N)C(=O)N2CC[C@@H](C)C[C@@H]2C(=O)O)C1` (some centres unmarked) [Argatroban]: the “lower K i value observed versus reported” value in assay [1] is reported as 13 fold.
As to `[H]/N=C(/N)c1ccc(NCc2nc3cc(C(=O)N(CCC(=O)O)c4ccccn4)ccc3n2C)cc1` [Dabigatran], the “fibrinogen conversion by activated wild-type prothrombin (in words)” value in assay [2] is listed as “no detectable fibrinogen conversion”. For the same molecule, the IC50 was […] in the assay on thrombin and 237 ± 33 nM in assay [3] (5 nM prothrombinase-activated KL3, 50 μM pNAPEP-0238, read-out: IC50, pNAPEP-0238 conversion). Further, the Ki is 5 nM on wild-type thrombin and 150 nM in assay [3] (KL3, Cheng-Prusoff equation).
On to `COc1ccc(-n2nc(C(N)=O)c3c2C(=O)N(c2ccc(N4CCCCC4=O)cc2)CC3)cc1` [apixaban], for which, in the assay on FXa, the “hindered FXa active site engagement by inhibitor” value is on record as ≤ 800 fold.
With `O=C(NC[C@H]1CN(c2ccc(N3CCOCC3=O)cc2)C(=O)O1)c1ccc(Cl)s1` [rivaroxaban], the “hindered FXa active site engagement by inhibitor” value in the assay on FXa is given as ≤ 800 fold.
